{"source": "patent US9433655B2", "about": "“Composition comprising natural substance extract as active ingredient for preventing or treating acute renal failure” (priority 2012, dated 2016)", "key": {"renal epithelial cells": {"test_system": "renal epithelial cells", "test": "Measurement of GSH content", "assay_type": "cell-based", "conditions": "single treatment of cisplatin 25 μg/ml, 24 hours", "method": "Monochlorobimane was employed to determine the GSH levels, and experiments for measuring GSH content were performed using the […] with reference to the conventional method of Fernandez-Checa and Kaplowitz. The number of cells, in which GSH is detectable, was determined by historical data and preliminary experiment, and 2×10^6 cells were seeded to each well of culture plate. After culture for 24 hours, the dilution fold of the final concentration of the drug determined as an active drug was considered and calculated, based on the results of MTT Assay and crystal violet Assay. […] Cells were harvested using 0.25% Trypsin-EDTA, and then centrifuged at 1,200 rpm for 3 minutes. Cold buffer was added to the resulting cell pellet, followed by sonication for 30 seconds. Centrifugation was carried out at 10,000 rpm for 15 minutes, and then the supernatant was collected and used for BCA protein quantification. 1 g/ml of MPA diluted in D.W was added to the supernatant at a volume ratio of 4:1, followed by immediately vortexing. […] End-point fluorescence wavelength at Ex: 360 nm and Em: 460 nm was measured at S=70. Data of the experimental results were analyzed using a Microsoft Excel program, and post-test analysis using Bonferroni multiple comparison test was performed to investigate the differences between the groups. p<0.001 was considered statistically significant."}, "p53": {"test_system": "p53", "test": "Examination of p53 expression pattern (Western blot)", "assay_type": "cell-based", "conditions": "single treatment of cisplatin", "method": "Cells treated with Elsholtziae Herba extract and/or cisplatin were harvested, and RIPA buffer was added thereto, followed by sonication for cell lysis. Centrifugation was performed at 15,000 rpm for 15 minutes, and the supernatant was obtained, and subjected to protein quantification by BCA assay. The protein was loaded at an amount of 20 μg/10 μl in each well, and 12% SDS-PAGE polyacrylamide gel electrophoresis was performed, and transferred to a nitrocellulose membrane. The membrane was blocked with 5% Skim milk-TBST, and then treated with primary antibody (anti-p53/dilution—1:300). p53 was detected with HRP conjugated anti-mouse IgG (dilution—1:5000) and immune reaction was visualized by ECL. The measurement results are shown as Mean±S.E.M. (standard error of mean) in FIG. 6."}}, "note": "Entries after “also recorded” stand apart in the source; their conditions may differ.", "data": [{"smiles": "N.N.[Cl][Pt][Cl]", "note": "[cisplatin, cis-diaminedichloroplatinum II]", "values": [{"measurement": "GSH content", "setting": "renal epithelial cells", "value": "reduced GSH content"}, {"measurement": "p53 expression level", "setting": "p53", "value": "increased p53 expression; also recorded: remarkably increased"}]}]}
